Results reported in patent US12649751B2 (Arcus Biosciences, Inc., priority 2022, dated 2026).
Like-named read-outs stand apart in the source and are kept apart here.

Biological target: HPK1 (Homo sapiens, UniProt Q92918)
Test: HPK1 Biochemical Assay (ADP-Glo luminescence; low ATP 10 μM or high ATP 200 μM)
Conditions: read-out: Biochemical Potency (low ATP)
[1] = HPK1 ADP-Glo assay, low ATP (10 μM ATP, 2 nM HPK1)

Sequence of HPK1 (Q92918 whole entry, species assumed): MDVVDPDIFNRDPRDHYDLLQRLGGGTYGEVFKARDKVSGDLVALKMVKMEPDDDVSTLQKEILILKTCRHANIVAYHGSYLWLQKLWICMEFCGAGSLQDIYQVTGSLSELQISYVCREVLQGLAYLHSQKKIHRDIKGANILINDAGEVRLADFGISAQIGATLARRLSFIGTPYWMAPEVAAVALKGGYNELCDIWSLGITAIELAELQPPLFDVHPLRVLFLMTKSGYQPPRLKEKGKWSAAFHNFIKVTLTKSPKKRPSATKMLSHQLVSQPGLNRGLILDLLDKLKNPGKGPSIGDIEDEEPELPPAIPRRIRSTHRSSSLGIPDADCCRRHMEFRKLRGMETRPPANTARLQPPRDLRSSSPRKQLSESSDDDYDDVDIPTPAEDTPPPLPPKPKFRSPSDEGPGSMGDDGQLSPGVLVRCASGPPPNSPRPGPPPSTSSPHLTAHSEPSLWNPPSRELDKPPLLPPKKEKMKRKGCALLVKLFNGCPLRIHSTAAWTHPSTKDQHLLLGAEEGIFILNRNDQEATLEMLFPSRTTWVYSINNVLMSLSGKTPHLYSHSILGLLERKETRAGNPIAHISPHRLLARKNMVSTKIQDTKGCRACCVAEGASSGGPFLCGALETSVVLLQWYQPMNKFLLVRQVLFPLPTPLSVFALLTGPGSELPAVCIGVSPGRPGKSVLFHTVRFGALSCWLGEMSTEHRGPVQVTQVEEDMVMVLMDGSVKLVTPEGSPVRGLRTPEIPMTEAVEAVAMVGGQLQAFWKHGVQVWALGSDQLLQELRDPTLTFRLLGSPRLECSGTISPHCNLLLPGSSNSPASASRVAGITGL

SMILES | IC50 (2 nM HPK1, 10 μM ATP) [nM] | IC50 [1] [nM]
Cc1cc(Nc2cc3nc(-c4cc5n(n4)CC(=O)N(C(C)C)CC5)sc3cn2)nc(O[C@H]2CCNC2)c1 [Example 185, 2-(6-{[4-Methyl-6-((3S)-pyrrolidin-3-yloxy)pyridin-2-yl]amino}-[1,3]thiazolo[5,4-c]pyridin-2-yl)-6-(propan-2-yl)-4H,5H,6H,7H,8H-pyrazolo[1,5-d][1,4]diazepin-7-one] | 100 to 1000 | –
Cc1cc(Nc2cc3nc(-c4ncccc4C)sc3cn2)nc(OC2CCNCC2)c1 [Example 174, 4-Methyl-N-[2-(3-methylpyridin-2-yl)-[1,3]thiazolo[5,4-c]pyridin-6-yl]-6-(piperidin-4-yloxy)pyridin-2-amine] | < 100 | –
Cc1cc(Nc2cc3nc(-c4ccnc(C)c4)sc3cn2)nc(N2CCC(C)(N)C2)c1 (stereo not shown) [Example 73, 6-(3-Amino-3-methylpyrrolidin-1-yl)-4-methyl-N-[2-(2-methylpyridin-4-yl)-[1,3]thiazolo[5,4-c]pyridin-6-yl]pyridin-2-amine] | < 100 | –
c1cnn(-c2nc3cc(Nc4cc(C5CCOCC5)nc(N5C[C@@H]6C[C@H]5CN6)n4)ncc3s2)c1 [Example 437] | – | < 100
Cc1cccnc1-c1nc2cc(Nc3cccc(N4CCN(C)C[C@H]4C)n3)ncc2s1 [Example 103, 6-[(2R)-2,4-Dimethylpiperazin-1-yl]-N-[2-(3-methylpyridin-2-yl)-[1,3]thiazolo[5,4-c]pyridin-6-yl]pyridin-2-amine] | 100 to 1000 | –
Cc1cc(Nc2cc3nc(N4CCC(O)CC4)sc3cn2)nc(O[C@H]2CCNC2)c1 [Example 189, 1-(6-{[4-Methyl-6-((3S)-pyrrolidin-3-yloxy)pyridin-2-yl]amino}-[1,3]thiazolo[5,4-c]pyridin-2-yl)piperidin-4-ol] | < 100 | –
CCNCc1nc(Nc2cc3nc(-c4c(C)cccc4F)sc3cn2)ccc1N1CCC(F)(F)C1 [Example 279, 5-(3,3-Difluoropyrrolidin-1-yl)-6-[(ethylamino)methyl]-N-[2-(2-fluoro-6-methylphenyl)-[1,3]thiazolo[5,4-c]pyridin-6-yl]pyridin-2-amine] | < 100 | –
CN1C[C@@H]2C[C@H]1CN2c1nccc(Nc2cc3nc(N4CCc5cccnc5C4)sc3cn2)n1 [Example 428] | – | 100 to 1000
Cc1cc(Nc2cc3nc(-c4cccnc4C)sc3cn2)nc(O[C@H]2CCNC2)c1 [Example 179, 4-Methyl-N-[2-(2-methylpyridin-3-yl)-[1,3]thiazolo[5,4-c]pyridin-6-yl]-6-[(3S)-pyrrolidin-3-yloxy]pyridin-2-amine] | < 100 | –
CC(C)(O)c1cc(-c2nc3cc(Nc4cnc(C5CCOCC5)c(N5C[C@@H]6C[C@H]5CN6)n4)ncc3s2)ccn1 [Example 303, 2-{4-[6-({6-[(1S,4S)-2,5-diazabicyclo[2.2.1]heptan-2-yl]-5-(oxan-4-yl)pyrazin-2-yl}amino)-[1,3]thiazolo[5,4-c]pyridin-2-yl]pyridin-2-yl}propan-2-ol] | – | < 100
Cc1nccn1-c1nc2cc(Nc3ccc(C4CCOCC4)c(CN4CCCC4)n3)ncc2s1 [Example 239, N-[2-(2-Methyl-1H-imidazol-1-yl)-[1,3]thiazolo[5,4-c]pyridin-6-yl]-5-(oxan-4-yl)-6-[(pyrrolidin-1-yl)methyl]pyridin-2-amine] | < 100 | –
Cc1cc(C)n(-c2nc3cc(Nc4ccc(N5CCOCC5)c(CN5CCCC5)n4)ncc3s2)n1 [Example 196, N-[2-(3,5-Dimethyl-1H-pyrazol-1-yl)-[1,3]thiazolo[5,4-c]pyridin-6-yl]-5-(morpholin-4-yl)-6-[(pyrrolidin-1-yl)methyl]pyridin-2-amine] | < 100 | –
Cc1cccnc1-c1nc2cc(Nc3ccc(N4CCC(F)(F)C4)c(N4CCCC4)n3)ncc2s1 [Example 280, 5-(3,3-Difluoropyrrolidin-1-yl)-N-[2-(3-methylpyridin-2-yl)-[1,3]thiazolo[5,4-c]pyridin-6-yl]-6-(pyrrolidin-1-yl)pyridin-2-amine] | 1000 to 5000 | –
Cc1cccnc1-c1nc2cc(Nc3ccc4c(n3)[C@@H](N)CCC4)ncc2s1 [Example 583] | – | < 100
CN1C[C@@H]2C[C@H]1CN2c1nccc(Nc2cc3nc(-c4cccc(C(C)(C)O)c4)sc3cn2)n1 [Example 419] | – | < 100
Cc1ccc(Nc2cc3nc(-c4cnccn4)sc3cn2)nc1CN1CCCC1 [Example 56, 5-Methyl-N-[2-(pyrazin-2-yl)-[1,3]thiazolo[5,4-c]pyridin-6-yl]-6-[(pyrrolidin-1-yl)methyl]pyridin-2-amine] | 100 to 1000 | –
C[C@H]1CCCN1c1nc2cc(Nc3ccc(C4CCOCC4)c(CN4CCCC4)n3)ncc2s1 [Example 230, N-{2-[(2S)-2-Methylpyrrolidin-1-yl]-[1,3]thiazolo[5,4-c]pyridin-6-yl}-5-(oxan-4-yl)-6-[(pyrrolidin-1-yl)methyl]pyridin-2-amine] | < 100 | –

SMILES | IC50 (2 nM HPK1, 10 μM ATP) [nM] | IC50 [1] [nM]
CN1C[C@@H]2C[C@H]1CN2c1nccc(Nc2cc3nc(-c4ccnc(N5CC[C@@H](F)C5)c4)sc3cn2)n1 [Example 267, N-(2-{2-[(3R)-3-Fluoropyrrolidin-1-yl]pyridin-4-yl}-[1,3]thiazolo[5,4-c]pyridin-6-yl)-2-[(1S,4S)-5-methyl-2,5-diazabicyclo[2.2.1]heptan-2-yl]pyrimidin-4-amine] | < 100 | –
Cc1cc(Nc2cc3nc(-c4cccc(C)n4)sc3cn2)nc(O[C@H]2CCNC2)c1 [Example 163, 4-Methyl-N-[2-(6-methylpyridin-2-yl)-[1,3]thiazolo[5,4-c]pyridin-6-yl]-6-[(3S)-pyrrolidin-3-yloxy]pyridin-2-amine] | < 100 | –
Cc1cccnc1-c1nc2cc(Nc3cccc(C4(O)C[C@@H]5CC4CN5)n3)ncc2s1 (stereo partly shown) [Example 314, 5-{6-[2-(3-methyl-2-pyridyl)-3-thia-1,5-diaza-6-indenylamino]-2-pyridyl}-2-azabicyclo[2.2.1]heptan-5-ol] | – | < 100
CN1C[C@@H]2C[C@H]1CN2c1nccc(Nc2cc3nc(-c4ccnc(N5CC[C@H](O)C5)c4)sc3cn2)n1 [Example 462] | – | < 100
CN1C[C@@H]2C[C@H]1CN2c1cncc(Nc2cc3nc(-c4ncco4)sc3cn2)n1 [Example 421] | – | < 100
Cc1ccc(Nc2cc3nc(-n4nccc4C)sc3cn2)nc1N1CCN(CCO)CC1 [Example 203, 2-[4-(3-Methyl-6-{[2-(5-methyl-1H-pyrazol-1-yl)-[1,3]thiazolo[5,4-c]pyridin-6-yl]amino}pyridin-2-yl)piperazin-1-yl]ethan-1-ol] | 100 to 1000 | –
Cc1ccc(Nc2cc3nc(-c4ncccc4C)sc3cn2)nc1OC1CCNC1 (stereo not shown) [Example 162, 5-Methyl-N-[2-(3-methylpyridin-2-yl)-[1,3]thiazolo[5,4-c]pyridin-6-yl]-6-(pyrrolidin-3-yloxy)pyridin-2-amine] | < 100 | –
CN1C[C@@H]2C[C@H]1CN2c1nccc(Nc2cc3nc(-c4ccnc5c4cnn5C)sc3cn2)n1 [Example 411] | – | < 100
CN1C[C@@H]2C[C@H]1CN2c1cncc(Nc2cc3nc(-c4ccncc4)sc3cn2)n1 [Example 146, 6-[(1S,4S)-5-Methyl-2,5-diazabicyclo[2.2.1]heptan-2-yl]-N-[2-(pyridin-4-yl)-[1,3]thiazolo[5,4-c]pyridin-6-yl]pyrazin-2-amine] | < 100 | –
Cc1ccc(Nc2cc3nc(-c4ncccc4C)sc3cn2)nc1CN1CCCC1(C)C [Example 47, 6-[(2,2-Dimethylpyrrolidin-1-yl)methyl]-5-methyl-N-[2-(3-methylpyridin-2-yl)-[1,3]thiazolo[5,4-c]pyridin-6-yl]pyridin-2-amine] | < 100 | –
N#Cc1ccc(-c2nc3cc(Nc4ccc(N5CCOCC5)c(CN5CCCC5)n4)ncc3s2)cc1 [Example 21, 4-(6-{[5-(Morpholin-4-yl)-6-[(pyrrolidin-1-yl)methyl]pyridin-2-yl]amino}-[1,3]thiazolo[5,4-c]pyridin-2-yl)benzonitrile] | < 100 | –
CNS(=O)(=O)c1cccc(-c2nc3cc(Nc4cccc(N5C[C@@H]6C[C@H]5CN6)n4)ncc3s2)c1 [Example 324] | – | < 100
Cc1ccc(Nc2cc3nc(-c4cccnc4)sc3cn2)nc1CN1CCCC1 [Example 53, 5-Methyl-N-[2-(pyridin-3-yl)-[1,3]thiazolo[5,4-c]pyridin-6-yl]-6-[(pyrrolidin-1-yl)methyl]pyridin-2-amine] | < 100 | –
C[C@@H]1CCCN1c1nc2cc(Nc3ccc(C4CCOCC4)c(CN4CCCC4)n3)ncc2s1 [Example 229, N-{2-[(2R)-2-Methylpyrrolidin-1-yl]-[1,3]thiazolo[5,4-c]pyridin-6-yl}-5-(oxan-4-yl)-6-[(pyrrolidin-1-yl)methyl]pyridin-2-amine] | 100 to 1000 | –
Cc1cc(Nc2cc3nc(-c4ncccc4C)sc3cn2)nc(O[C@H]2CCCNC2)c1 [Example 161, 4-Methyl-N-[2-(3-methylpyridin-2-yl)-[1,3]thiazolo[5,4-c]pyridin-6-yl]-6-[(3S)-piperidin-3-yloxy]pyridin-2-amine] | < 100 | –
CN1C[C@@H]2C[C@H]1CN2c1cncc(Nc2cc3nc(-c4cc(N5CC[C@H](F)C5)ccn4)sc3cn2)n1 [Example 124, N-(2-{4-[(3S)-3-Fluoropyrrolidin-1-yl]pyridin-2-yl}-[1,3]thiazolo[5,4-c]pyridin-6-yl)-6-[(1S,4S)-5-methyl-2,5-diazabicyclo[2.2.1]heptan-2-yl]pyrazin-2-amine] | < 100 | –
CN1C[C@@H]2C[C@H]1CN2c1nccc(Nc2cc3nc(-c4ccnc(N5CC[C@@H](O)C5)c4)sc3cn2)n1 [Example 465] | – | < 100
